Key:
[1] = biological target: Mitogen-activated protein kinase kinase kinase 6 (Homo sapiens) (UniProt O95382); conditions: Compound concentration 1000.0 nM
[2] = biological target: Ephrin type-A receptor 2 (Homo sapiens) (UniProt P29317); conditions: Compound concentration 1000.0 nM
[3] = biological target: Ephrin type-B receptor 1 (Homo sapiens) (UniProt P54762); conditions: Compound concentration 1000.0 nM
[4] = biological target: Ephrin type-A receptor 3 (Homo sapiens) (UniProt P29320); conditions: Compound concentration 1000.0 nM
[5] = tested on: Epidermal growth factor receptor (Homo sapiens), P00533 [UNDEFINED MUTATION]; conditions: Compound concentration 1000.0 nM
[6] = biological target: Serine/threonine-protein kinase Nek11 (Homo sapiens) (UniProt Q8NG66); conditions: Compound concentration 1000.0 nM
[7] = biological target: Atypical kinase COQ8A, mitochondrial (Homo sapiens) (UniProt Q8NI60); conditions: Compound concentration 1000.0 nM
[8] = biological target: Serine/threonine-protein kinase MRCK gamma (Homo sapiens) (UniProt Q6DT37); conditions: Compound concentration 1000.0 nM
[9] = biological target: Serine/threonine-protein kinase Sgk1 (Homo sapiens) (UniProt O00141); conditions: Compound concentration 1000.0 nM
[10] = biological target: Myosin-IIIb (Homo sapiens) (UniProt Q8WXR4); conditions: Compound concentration 1000.0 nM
[11] = biological target: Rho-associated protein kinase 1 (Homo sapiens) (UniProt Q13464); conditions: Compound concentration 1000.0 nM
[12] = biological target: Mitogen-activated protein kinase 13 (Homo sapiens) (UniProt O15264); conditions: Compound concentration 1000.0 nM
[13] = biological target: Tyrosine-protein kinase TXK (Homo sapiens) (UniProt P42681); conditions: Compound concentration 1000.0 nM
[14] = biological target: Interleukin-1 receptor-associated kinase 1 (Homo sapiens) (UniProt P51617); conditions: Compound concentration 1000.0 nM
[15] = biological target: Proto-oncogene tyrosine-protein kinase receptor Ret (Homo sapiens) (UniProt P07949); conditions: Compound concentration 1000.0 nM
[16] = biological target: Casein kinase I isoform delta (Homo sapiens) (UniProt P48730); conditions: Compound concentration 1000.0 nM
[17] = biological target: Activin receptor type-1-like (Homo sapiens) (UniProt P37023); conditions: Compound concentration 1000.0 nM
[18] = biological target: Cytoplasmic tyrosine-protein kinase BMX (Homo sapiens) (UniProt P51813); conditions: Compound concentration 1000.0 nM
[19] = biological target: Serine/threonine-protein kinase Nek9 (Homo sapiens) (UniProt Q8TD19); conditions: Compound concentration 1000.0 nM
[20] = biological target: Dual specificity tyrosine-phosphorylation-regulated kinase 1A (Homo sapiens) (UniProt Q13627); conditions: Compound concentration 1000.0 nM
[21] = biological target: Mitogen-activated protein kinase kinase kinase 20 (Homo sapiens) (UniProt Q9NYL2); conditions: Compound concentration 1000.0 nM
[22] = biological target: Homeodomain-interacting protein kinase 4 (Homo sapiens) (UniProt Q8NE63); conditions: Compound concentration 1000.0 nM
[23] = biological target: LIM domain kinase 2 (Homo sapiens) (UniProt P53671); conditions: Compound concentration 1000.0 nM
[24] = biological target: Serine/threonine-protein kinase Sgk2 (Homo sapiens) (UniProt Q9HBY8); conditions: Compound concentration 1000.0 nM
[25] = biological target: Cyclin-dependent kinase 5 (Homo sapiens) (UniProt Q00535); conditions: Compound concentration 1000.0 nM
[26] = biological target: Mitogen-activated protein kinase kinase kinase 9 (Homo sapiens) (UniProt P80192); conditions: Compound concentration 1000.0 nM
[27] = biological target: Phosphatidylinositol 4,5-bisphosphate 3-kinase catalytic subunit gamma isoform (Homo sapiens) (UniProt P48736); conditions: Compound concentration 1000.0 nM
[28] = tested on: Leucine-rich repeat serine/threonine-protein kinase 2 (Homo sapiens), Q5S007 [G2019S]; conditions: Compound concentration 1000.0 nM
[29] = biological target: Serine/threonine-protein kinase MRCK alpha (Homo sapiens) (UniProt Q5VT25); conditions: Compound concentration 1000.0 nM
[30] = biological target: Ribosomal protein S6 kinase alpha-6 (Homo sapiens) (UniProt Q9UK32); conditions: Compound concentration 1000.0 nM
[31] = biological target: Phosphatidylinositol 4-phosphate 3-kinase C2 domain-containing subunit beta (Homo sapiens) (UniProt O00750); conditions: Compound concentration 1000.0 nM
[32] = biological target: cAMP-dependent protein kinase catalytic subunit alpha (Homo sapiens) (UniProt P17612); conditions: Compound concentration 1000.0 nM
[33] = biological target: Insulin receptor-related protein (Homo sapiens) (UniProt P14616); conditions: Compound concentration 1000.0 nM
[34] = tested on: Receptor-type tyrosine-protein kinase FLT3 (Homo sapiens), P36888 [D835V]; conditions: Compound concentration 1000.0 nM
[35] = biological target: D(1B) dopamine receptor (Homo sapiens) (UniProt P21918); conditions: Compound concentration 10.0 uM
[36] = biological target: Alpha-1D adrenergic receptor (Homo sapiens) (UniProt P25100); conditions: Compound concentration 10.0 uM
[37] = biological target: Death-associated protein kinase 3 (Homo sapiens) (UniProt O43293); conditions: Compound concentration 1000.0 nM
[38] = tested on: Epidermal growth factor receptor (Homo sapiens), P00533 [UNDEFINED MUTATION]; conditions: Compound concentration 1000.0 nM; remark: listed apart in the source
[39] = biological target: Myosin light chain kinase (Homo sapiens) (UniProt Q32MK0); conditions: Compound concentration 1000.0 nM
[40] = biological target: Epithelial discoidin domain-containing receptor 1 (Homo sapiens) (UniProt Q08345); conditions: Compound concentration 1000.0 nM
[41] = biological target: Mitogen-activated protein kinase 14 (Homo sapiens) (UniProt Q16539); conditions: Compound concentration 1000.0 nM
[42] = biological target: Activin receptor type-2B (Homo sapiens) (UniProt Q13705); conditions: Compound concentration 1000.0 nM
[43] = biological target: Serine/threonine-protein kinase Nek4 (Homo sapiens) (UniProt P51957); conditions: Compound concentration 1000.0 nM
[44] = biological target: Uncharacterized serine/threonine-protein kinase SBK3 (Homo sapiens) (UniProt P0C264); conditions: Compound concentration 1000.0 nM
[45] = biological target: G protein-coupled receptor kinase 4 (Homo sapiens) (UniProt P32298); conditions: Compound concentration 1000.0 nM

Chain of Epidermal growth factor receptor (Homo sapiens), P00533 [UNDEFINED MUTATION] (P00533 whole entry, looked up, change not shown): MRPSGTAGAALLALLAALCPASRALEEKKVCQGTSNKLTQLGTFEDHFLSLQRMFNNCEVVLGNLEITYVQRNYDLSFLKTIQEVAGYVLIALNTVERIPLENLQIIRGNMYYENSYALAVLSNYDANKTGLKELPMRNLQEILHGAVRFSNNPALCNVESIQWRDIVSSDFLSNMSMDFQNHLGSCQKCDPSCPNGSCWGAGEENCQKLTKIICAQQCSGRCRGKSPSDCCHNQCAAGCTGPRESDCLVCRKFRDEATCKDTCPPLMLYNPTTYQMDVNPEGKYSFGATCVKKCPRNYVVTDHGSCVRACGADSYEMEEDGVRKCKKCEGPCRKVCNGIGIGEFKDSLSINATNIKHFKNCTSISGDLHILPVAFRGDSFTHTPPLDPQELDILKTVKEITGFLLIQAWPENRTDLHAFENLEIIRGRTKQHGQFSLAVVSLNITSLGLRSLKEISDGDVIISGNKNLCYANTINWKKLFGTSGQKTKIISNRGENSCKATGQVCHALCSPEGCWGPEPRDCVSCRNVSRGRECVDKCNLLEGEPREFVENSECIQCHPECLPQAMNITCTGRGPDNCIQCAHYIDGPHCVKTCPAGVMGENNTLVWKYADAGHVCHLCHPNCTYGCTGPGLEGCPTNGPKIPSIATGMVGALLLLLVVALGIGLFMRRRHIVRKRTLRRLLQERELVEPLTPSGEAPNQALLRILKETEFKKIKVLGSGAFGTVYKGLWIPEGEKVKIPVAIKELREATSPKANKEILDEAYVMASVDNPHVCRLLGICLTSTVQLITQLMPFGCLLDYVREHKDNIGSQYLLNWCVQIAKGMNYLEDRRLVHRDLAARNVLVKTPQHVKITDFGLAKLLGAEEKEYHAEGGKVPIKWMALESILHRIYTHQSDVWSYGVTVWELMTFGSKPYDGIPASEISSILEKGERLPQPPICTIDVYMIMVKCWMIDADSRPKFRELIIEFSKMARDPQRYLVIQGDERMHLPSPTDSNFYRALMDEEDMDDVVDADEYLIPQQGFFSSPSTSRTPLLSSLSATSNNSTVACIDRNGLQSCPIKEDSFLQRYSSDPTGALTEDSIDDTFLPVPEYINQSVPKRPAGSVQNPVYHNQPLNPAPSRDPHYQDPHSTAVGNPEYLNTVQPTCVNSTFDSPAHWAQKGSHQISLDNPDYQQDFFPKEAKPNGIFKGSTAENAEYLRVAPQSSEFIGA
Chain of Cyclin-dependent kinase 5 (Homo sapiens) (Q00535 whole entry, looked up): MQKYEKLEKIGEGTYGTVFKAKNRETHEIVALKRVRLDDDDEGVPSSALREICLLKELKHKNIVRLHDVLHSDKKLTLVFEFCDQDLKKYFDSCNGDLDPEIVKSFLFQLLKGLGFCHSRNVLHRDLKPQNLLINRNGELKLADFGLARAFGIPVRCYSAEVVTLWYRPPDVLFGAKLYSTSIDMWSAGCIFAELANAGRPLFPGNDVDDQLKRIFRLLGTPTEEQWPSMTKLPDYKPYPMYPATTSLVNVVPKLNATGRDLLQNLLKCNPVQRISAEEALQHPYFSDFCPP
Chain of LIM domain kinase 2 (Homo sapiens) (P53671 whole entry, looked up, the tested form may be a part): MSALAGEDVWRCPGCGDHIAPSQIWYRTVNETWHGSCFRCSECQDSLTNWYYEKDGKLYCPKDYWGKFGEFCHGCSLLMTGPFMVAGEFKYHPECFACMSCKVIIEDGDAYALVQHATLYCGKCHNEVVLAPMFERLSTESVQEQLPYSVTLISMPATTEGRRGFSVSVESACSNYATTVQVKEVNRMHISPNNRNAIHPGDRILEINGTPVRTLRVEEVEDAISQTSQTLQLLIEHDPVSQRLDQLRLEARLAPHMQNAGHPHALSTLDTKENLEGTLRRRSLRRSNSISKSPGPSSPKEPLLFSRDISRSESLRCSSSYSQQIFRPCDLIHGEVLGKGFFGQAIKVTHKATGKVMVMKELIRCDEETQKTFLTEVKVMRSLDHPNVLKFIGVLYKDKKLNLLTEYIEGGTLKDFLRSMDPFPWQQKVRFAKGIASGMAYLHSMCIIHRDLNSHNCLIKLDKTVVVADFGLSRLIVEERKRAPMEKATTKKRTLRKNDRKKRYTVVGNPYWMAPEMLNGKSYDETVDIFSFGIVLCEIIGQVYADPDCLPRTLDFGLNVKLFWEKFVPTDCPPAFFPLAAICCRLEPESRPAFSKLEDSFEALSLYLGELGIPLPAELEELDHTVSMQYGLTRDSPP
Chain of Interleukin-1 receptor-associated kinase 1 (Homo sapiens) (P51617 whole entry, looked up): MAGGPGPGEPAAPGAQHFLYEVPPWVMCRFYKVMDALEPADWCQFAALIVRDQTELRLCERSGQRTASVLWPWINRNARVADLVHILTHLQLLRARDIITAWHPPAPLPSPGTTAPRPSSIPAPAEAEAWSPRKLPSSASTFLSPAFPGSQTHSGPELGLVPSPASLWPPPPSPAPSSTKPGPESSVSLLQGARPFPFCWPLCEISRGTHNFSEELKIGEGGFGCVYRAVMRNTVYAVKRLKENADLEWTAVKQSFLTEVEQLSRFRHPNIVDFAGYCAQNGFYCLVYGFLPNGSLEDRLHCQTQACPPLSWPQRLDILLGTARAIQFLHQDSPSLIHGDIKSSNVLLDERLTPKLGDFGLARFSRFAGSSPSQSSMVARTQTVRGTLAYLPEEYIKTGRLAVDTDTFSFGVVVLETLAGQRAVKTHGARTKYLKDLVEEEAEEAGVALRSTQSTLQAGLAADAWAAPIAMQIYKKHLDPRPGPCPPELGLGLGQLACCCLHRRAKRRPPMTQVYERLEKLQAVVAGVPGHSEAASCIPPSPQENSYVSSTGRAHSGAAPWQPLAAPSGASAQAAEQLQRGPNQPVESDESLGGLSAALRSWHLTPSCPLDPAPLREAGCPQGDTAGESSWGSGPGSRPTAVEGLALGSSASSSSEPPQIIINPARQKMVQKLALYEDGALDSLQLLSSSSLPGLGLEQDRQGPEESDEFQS
Chain of Serine/threonine-protein kinase Sgk1 (Homo sapiens) (O00141 whole entry): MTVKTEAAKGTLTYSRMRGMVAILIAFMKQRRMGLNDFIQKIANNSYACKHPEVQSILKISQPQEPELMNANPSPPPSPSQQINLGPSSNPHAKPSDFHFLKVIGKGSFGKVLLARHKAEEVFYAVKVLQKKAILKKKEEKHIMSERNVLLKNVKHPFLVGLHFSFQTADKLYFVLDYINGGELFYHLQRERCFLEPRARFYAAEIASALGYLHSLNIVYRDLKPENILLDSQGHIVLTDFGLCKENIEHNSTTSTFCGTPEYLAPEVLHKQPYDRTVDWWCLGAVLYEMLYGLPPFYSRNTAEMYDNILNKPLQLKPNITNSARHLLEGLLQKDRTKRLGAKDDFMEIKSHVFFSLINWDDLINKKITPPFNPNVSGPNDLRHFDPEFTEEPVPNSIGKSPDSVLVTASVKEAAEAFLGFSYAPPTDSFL
Chain of Mitogen-activated protein kinase kinase kinase 6 (Homo sapiens) (O95382 whole entry): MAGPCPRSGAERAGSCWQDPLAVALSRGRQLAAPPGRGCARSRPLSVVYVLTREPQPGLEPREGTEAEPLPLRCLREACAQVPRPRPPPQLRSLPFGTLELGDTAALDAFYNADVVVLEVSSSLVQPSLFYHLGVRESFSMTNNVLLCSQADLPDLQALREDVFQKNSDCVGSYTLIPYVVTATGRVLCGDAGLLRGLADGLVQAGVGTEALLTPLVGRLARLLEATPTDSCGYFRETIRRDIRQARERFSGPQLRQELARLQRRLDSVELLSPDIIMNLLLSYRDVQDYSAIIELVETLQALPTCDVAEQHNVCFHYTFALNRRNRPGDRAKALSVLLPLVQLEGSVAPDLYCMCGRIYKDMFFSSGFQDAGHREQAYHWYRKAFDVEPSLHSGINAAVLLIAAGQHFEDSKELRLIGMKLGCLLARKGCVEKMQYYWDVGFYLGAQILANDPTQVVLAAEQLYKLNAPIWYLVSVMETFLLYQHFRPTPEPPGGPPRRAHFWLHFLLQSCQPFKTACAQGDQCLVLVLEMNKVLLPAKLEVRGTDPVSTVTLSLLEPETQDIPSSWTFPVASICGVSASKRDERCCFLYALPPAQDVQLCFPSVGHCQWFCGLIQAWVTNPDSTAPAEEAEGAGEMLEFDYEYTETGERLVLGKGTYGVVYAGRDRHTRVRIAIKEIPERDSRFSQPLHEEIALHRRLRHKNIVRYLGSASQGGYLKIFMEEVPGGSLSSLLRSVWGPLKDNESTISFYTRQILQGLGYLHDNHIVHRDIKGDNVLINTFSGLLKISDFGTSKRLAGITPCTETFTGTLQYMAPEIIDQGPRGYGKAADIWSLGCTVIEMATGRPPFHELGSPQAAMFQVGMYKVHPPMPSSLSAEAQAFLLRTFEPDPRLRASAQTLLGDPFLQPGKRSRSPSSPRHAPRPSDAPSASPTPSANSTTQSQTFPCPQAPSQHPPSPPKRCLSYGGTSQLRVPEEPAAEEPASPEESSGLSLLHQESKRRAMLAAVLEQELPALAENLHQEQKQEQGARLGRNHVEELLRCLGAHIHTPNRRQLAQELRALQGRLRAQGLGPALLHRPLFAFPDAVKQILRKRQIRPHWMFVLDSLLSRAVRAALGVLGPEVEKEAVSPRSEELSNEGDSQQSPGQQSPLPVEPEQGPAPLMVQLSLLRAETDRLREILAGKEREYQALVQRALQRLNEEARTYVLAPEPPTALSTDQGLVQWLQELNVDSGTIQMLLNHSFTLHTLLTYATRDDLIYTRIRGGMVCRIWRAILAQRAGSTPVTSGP
Chain of Mitogen-activated protein kinase 13 (Homo sapiens) (O15264 whole entry): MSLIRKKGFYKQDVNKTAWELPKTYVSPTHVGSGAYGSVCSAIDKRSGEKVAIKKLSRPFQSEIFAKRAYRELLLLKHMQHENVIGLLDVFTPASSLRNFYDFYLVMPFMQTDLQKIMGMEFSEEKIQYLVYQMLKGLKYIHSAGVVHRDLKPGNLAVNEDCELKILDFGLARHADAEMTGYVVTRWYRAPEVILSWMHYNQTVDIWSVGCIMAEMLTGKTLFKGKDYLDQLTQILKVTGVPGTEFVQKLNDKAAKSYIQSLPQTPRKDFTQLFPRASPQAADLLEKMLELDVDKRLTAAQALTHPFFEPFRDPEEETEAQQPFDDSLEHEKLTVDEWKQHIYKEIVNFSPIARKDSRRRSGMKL

CO[C@@H](C)c1c(Nc2ccc([C@@H](N(C)C(=O)C3CCS(=O)(=O)CC3)C(F)(F)F)cc2)cnc2cc(Cl)nn12 [NVS-MALT1-C]
inactive: residual activity [1] 100% | residual activity [2] 83% | residual activity [3] 92% | residual activity [4] 90% | residual activity [5] 87% | residual activity [6] 100% | residual activity [7] 100% | residual activity [8] 86% | residual activity [9] 89% | residual activity [10] 100% | residual activity [11] 100% | residual activity [12] 100% | residual activity [13] 84% | residual activity [14] 82% | residual activity [15] 91% | residual activity [16] 100% | residual activity [17] 100% | residual activity [18] 83% | residual activity [19] 90% | residual activity [20] 92% | residual activity [21] 100% | residual activity [22] 100% | residual activity [23] 87% | residual activity [24] 99% | residual activity [25] 99% | residual activity [26] 81% | residual activity [27] 87% | residual activity [28] 100% | residual activity [29] 94% | residual activity [30] 98% | residual activity [31] 89% | residual activity [32] 87% | residual activity [33] 89% | residual activity [34] 52% | inhibition [35] 4.72% | inhibition [36] 3.2% | residual activity [38] 93% | residual activity [39] 87% | residual activity [40] 100% | residual activity [41] 83% | residual activity [42] 100% | residual activity [43] 90% | residual activity [44] 81% | residual activity [45] 100%
active: residual activity [37] 47%

CO[C@@H](C)c1c(Nc2ccc([C@H](N(C)C(=O)C3CCS(=O)(=O)CC3)C(F)(F)F)cc2)cnc2cc(Cl)nn12 [NVS-MALT1]
inactive: residual activity [1] 100% | residual activity [2] 100% | residual activity [3] 86% | residual activity [4] 97% | residual activity [5] 99% | residual activity [6] 100% | residual activity [7] 100% | residual activity [8] 87% | residual activity [9] 94% | residual activity [10] 82% | residual activity [11] 100% | residual activity [12] 100% | residual activity [13] 87% | residual activity [14] 93% | residual activity [15] 91% | residual activity [16] 88% | residual activity [17] 100% | residual activity [18] 99% | residual activity [19] 77% | residual activity [20] 75% | residual activity [21] 100% | residual activity [22] 72% | residual activity [23] 91% | residual activity [24] 91% | residual activity [25] 96% | residual activity [26] 100% | residual activity [27] 83% | residual activity [28] 100% | residual activity [29] 86% | residual activity [30] 91% | residual activity [31] 97% | residual activity [32] 90% | residual activity [33] 94% | residual activity [34] 59% | inhibition [35] 9.7% | inhibition [36] -6.69% | residual activity [37] 91% | residual activity [38] 100% | residual activity [39] 84% | residual activity [40] 99% | residual activity [41] 88% | residual activity [42] 66% | residual activity [43] 90% | residual activity [44] 84% | residual activity [45] 85%

Source: ChEMBL document CHEMBL4507320, “Data for DCP probe NVS-MALT1” (2021)
